Entries after “also recorded” stand apart in the source; their conditions may differ.
What was measured:
Acremonium chrysogenum = test: Zone of inhibition assay (agar plates); format: cell-based; details: Hapsidospora chrysogena, 168 h; after 7 days, 250 μg/mL
F. proliferatum = test: Zone of inhibition assay (agar plates); format: cell-based; parameters: key to Zone of Inhibition: X denotes no observable zone of inhibition; details: after 7 days, 250 μg/mL
C. parapsilosis = test: Zone of inhibition assay (agar plates); format: cell-based; details: Lodderomyces parapsilosis, 168 h; after 7 days, 250 μg/mL
[1] = test system: Scopulariopsis brevicaulis; test: Zone of inhibition assay (agar plates); format: cell-based; parameters: key to Zone of Inhibition: X denotes no observable zone of inhibition; details: after 7 days, 250 μg/mL
T. rubrum = test: Zone of inhibition assay (agar plates); format: cell-based; details: Trichophyton rubrum, 168 h; after 7 days, 250 μg/mL
C. kruseii = test: Zone of inhibition assay (agar plates); format: cell-based; parameters: key to Zone of Inhibition: X denotes no observable zone of inhibition; details: after 7 days, 250 μg/mL; for zone of inhibition at 250 µg/mL: 168 h
Epidermophyton floccosum = test: Zone of inhibition assay (agar plates); format: cell-based; parameters: key to Zone of Inhibition: X denotes no observable zone of inhibition; details: after 7 days, 250 μg/mL
Aspergillus flavus = test: Zone of inhibition assay (agar plates); format: cell-based; parameters: key to Zone of Inhibition: X denotes no observable zone of inhibition; details: after 7 days, 250 μg/mL
A. strictum = test: Zone of inhibition assay (agar plates); format: cell-based, Acremonium strictum; parameters: key to Zone of Inhibition: X denotes no observable zone of inhibition; details: after 7 days, 250 μg/mL; for zone of inhibition at 250 µg/mL: Sarocladium strictum, 168 h
[2] = test system: Trichophyton mentagrophytes; test: Zone of inhibition assay (agar plates); format: cell-based; parameters: key to Zone of Inhibition: X denotes no observable zone of inhibition; details: after 7 days, 250 μg/mL
Fusarium oxysporum = test: Zone of inhibition assay (agar plates); format: cell-based; parameters: key to Zone of Inhibition: X denotes no observable zone of inhibition; details: after 7 days, 250 μg/mL
A. terreus = test: Zone of inhibition assay (agar plates); format: cell-based, Aspergillus terreus; parameters: key to Zone of Inhibition: X denotes no observable zone of inhibition; details: after 7 days, 250 μg/mL
Scytalidium dimidiatum = test: Zone of inhibition assay (agar plates); format: cell-based; parameters: key: X denotes no observable zone of inhibition; details: after 7 days, 250 μg/mL
Candida albicans = test: Zone of inhibition assay (agar plates); format: cell-based; details: 168 h, after 7 days, 250 μg/mL
Microsporum canis = test: Zone of inhibition assay (agar plates); format: cell-based; details: 168 h, after 7 days, 250 μg/mL
S. hyalinum = test: Zone of inhibition assay (agar plates); format: cell-based, Scytalidium hyalinum; parameters: key to Zone of Inhibition: X denotes no observable zone of inhibition; details: after 7 days, 250 μg/mL
toenail onychomycosis = details: oral treatment, toenail onychomycosis (Einarson et al. 1994); cited from earlier work
[3] = oral treatment, literature reports; cited from earlier work

In the case of `CC12CCC(CC1=O)C2(C)C` (stereo not drawn) [Ca, Camphor], the zone of inhibition at 250 µg/mL (Acremonium chrysogenum) is reported as 10 mm, the “Zone of Inhibition” value (F. proliferatum) is reported as “X” and the zone of inhibition at 250 µg/mL (C. parapsilosis) is reported as 7 mm. The “Zone of Inhibition” value [1] was “X”, the zone of inhibition at 250 µg/mL (T. rubrum) was 8 mm and the “Zone of Inhibition” value (C. kruseii) was “X”. For the same compound, the “Zone of Inhibition” value (Epidermophyton floccosum) was “X”, the “Zone of Inhibition” value (Aspergillus flavus) was “X” and the “Zone of Inhibition” value (A. strictum) was “X”. For the same compound, the “Zone of Inhibition” value [2] was “X”, the “Zone of Inhibition” value (Fusarium oxysporum) was “X” and the “Zone of Inhibition” value (A. terreus) was “X”. For the same compound, the “Zone of Inhibition” value (Scytalidium dimidiatum) was “X”, the zone of inhibition at 250 µg/mL (Candida albicans) was 7 mm and the zone of inhibition at 250 µg/mL (Microsporum canis) was 2 mm. The “Zone of Inhibition” value (S. hyalinum) was “X”.

For `COC1=CC(=O)C[C@@H](C)[C@]12Oc1c(Cl)c(OC)cc(OC)c1C2=O` [GRI, griseofulvin], the “success rates of the treatments” value (toenail onychomycosis) is given as 17.5% and the side effects [3] is given as “elevated liver enzymes”.

For `CC(=O)N1CCN(c2ccc(OCC3COC(Cn4ccnc4)(c4ccc(Cl)cc4Cl)O3)cc2)CC1` (stereo not drawn) [KET, ketoconazole], the “success rates of the treatments” value (toenail onychomycosis) is given as 40.8% and the side effects [3] is given as “elevated liver enzymes; also recorded: anti-androgenic dysfunction in males and adrenal dysfunction”.

In the case of `CC1CCC(C(C)C)C(O)C1` (stereo not drawn) [M, Menthol], the zone of inhibition at 250 µg/mL (Acremonium chrysogenum) is reported as 15 mm, the “Zone of Inhibition” value (F. proliferatum) is reported as “X” and the zone of inhibition at 250 µg/mL (C. parapsilosis) is reported as 11 mm. For the same compound, the “Zone of Inhibition” value [1] was “X”, the zone of inhibition at 250 µg/mL (T. rubrum) was 15 mm and the zone of inhibition at 250 µg/mL (C. kruseii) was 12 mm. For the same compound, the zone of inhibition at 250 µg/mL (Epidermophyton floccosum; Epidermophyton floccosum, 168 h) was 2 mm, the “Zone of Inhibition” value (Aspergillus flavus) was “X” and the zone of inhibition at 250 µg/mL (A. strictum) was 9 mm. For the same compound, the “Zone of Inhibition” value [2] was “X”, the “Zone of Inhibition” value (Fusarium oxysporum) was “X” and the “Zone of Inhibition” value (A. terreus) was “X”. For the same compound, the “Zone of Inhibition” value (Scytalidium dimidiatum) was “X”, the zone of inhibition at 250 µg/mL (Candida albicans) was 14 mm and the zone of inhibition at 250 µg/mL (Microsporum canis) was 3 mm. For the same compound, the “Zone of Inhibition” value (S. hyalinum) was “X”.

Compound `Cc1ccc(C(C)C)c(O)c1` [T, Thymol] has a zone of inhibition at 250 µg/mL (Acremonium chrysogenum) of 20 mm, a zone of inhibition at 250 µg/mL (F. proliferatum; Fusarium proliferatum, 168 h) of 3 mm and a zone of inhibition at 250 µg/mL (C. parapsilosis) of 20 mm. The zone of inhibition at 250 µg/mL ([1]; Scopulariopsis brevicaulis, 168 h) was 14 mm, the zone of inhibition at 250 µg/mL (T. rubrum) was 16 mm and the zone of inhibition at 250 µg/mL (C. kruseii) was 16 mm. For the same compound, the “Zone of Inhibition” value (Epidermophyton floccosum) was “X”, the zone of inhibition at 250 µg/mL (Aspergillus flavus; Aspergillus flavus, 168 h) was 6 mm and the zone of inhibition at 250 µg/mL (A. strictum) was 12 mm. It also gave a zone of inhibition at 250 µg/mL ([2]; Trichophyton mentagrophytes, 168 h) of 10 mm, a zone of inhibition at 250 µg/mL (Fusarium oxysporum; Fusarium oxysporum, 168 h) of 2 mm and a zone of inhibition at 250 µg/mL (A. terreus; Aspergillus terreus, 168 h) of 3 mm. For the same compound, the “Zone of Inhibition” value (Scytalidium dimidiatum) was “X”, the zone of inhibition at 250 µg/mL (Candida albicans) was 17 mm and the zone of inhibition at 250 µg/mL (Microsporum canis) was 20 mm. The zone of inhibition at 250 µg/mL (S. hyalinum; Neoscytalidium hyalinum, 168 h) was 5 mm.

In the case of `CN(C/C=C/C#CC(C)(C)C)Cc1cccc2ccccc12` [TER, terbinafine], the “success rates of the treatments” value (toenail onychomycosis) is listed as 78.3%.

For `CCC(C)n1ncn(-c2ccc(N3CCN(c4ccc(OCC5COC(Cn6cncn6)(c6ccc(Cl)cc6Cl)O5)cc4)CC3)cc2)c1=O` (stereo not drawn) [itraconazole], the side effects [3] is listed as “elevations of serum transaminases, alkaline phosphatase and bilirubin”.

From patent publication US6344190B1, “Method and compositions for treatment of fungal nail disease” (Board of Trustees of Michigan State University, priority 1999, dated 2002)
